The results in this text go back to patent US7109200B2, “Carbamate derivatives, process for producing the same and use thereof” (Takeda Pharmaceutical Company Limited, priority 2000, dated 2006).

In one assay the target is human FXa (Homo sapiens, UniProt P00742). The assay is described as follows: Human activated coagulation factor X (FXa) inhibiting activity. Type of assay: biochemical. The settings on record: substrate S-2765, 37° C., absorbance at 405 nm. Here is the method: (1) Human Activated Coagulation Factor X (FXa) Inhibiting Activity
Chain of human FXa (P00742 235-488 limits assumed): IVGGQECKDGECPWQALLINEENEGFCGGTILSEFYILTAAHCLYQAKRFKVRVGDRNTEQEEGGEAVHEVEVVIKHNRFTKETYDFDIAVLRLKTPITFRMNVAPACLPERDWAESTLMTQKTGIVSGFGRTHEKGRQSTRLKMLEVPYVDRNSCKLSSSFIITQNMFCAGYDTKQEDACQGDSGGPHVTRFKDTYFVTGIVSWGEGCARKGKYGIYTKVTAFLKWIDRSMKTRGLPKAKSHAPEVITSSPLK
Chain of human FXa (P00742 41-179 partner limits assumed): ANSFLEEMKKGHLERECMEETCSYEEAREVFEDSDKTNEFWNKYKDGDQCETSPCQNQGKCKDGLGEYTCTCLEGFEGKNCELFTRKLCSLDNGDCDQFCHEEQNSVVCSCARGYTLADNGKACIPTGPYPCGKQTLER
Method: A cuvette was charged with 225 μl of 0.05 M tris buffer (pH 8.3) containing 0.145 M sodium chloride and 2 mM calcium chloride, 5 μl of a sample (test compound dissolved in dimethyl sulfoxide) and 10 μl of human FXa (0.3 unit/ml), which were reacted at 37° C. for 10 minutes and then combined with 10 μl of a substrate (3 mM, S-2765) and further reacted at 37° C. for 10 minutes. Then the reaction was terminated by adding 25 μl of 50% aqueous acetic acid, and the change in the absorbance at 405 nm was determined using a spectrophotometer to calculate the concentration at which the FXa effect was inhibited by 50% (IC50).

The next assay concerns Human normal plasma. The assay is described as follows: In vitro clotting time measurement: prothrombin time (PT). Type of assay: biochemical. The following applies: PT 2-fold extending concentration (CT2), rabbit brain-derived tissue thromboplastin. Here is the method:
(2) In vitro Clotting Time Measurement
(2-1) Prothrombin Time (PT) Measurement:
A PT-test WAKO (WAKO PURE CHEMICAL) was employed together with an automatic coagulometer (STA compact DIAGNOSTICA STAGO). 97 μl of Human normal plasma (fresh human plasma, FFP, SEKISUI KAGAKU KOGYO) was combined with 3 μl of a test substance and pre-incubated at 37° C. for 4 minutes. 50 μl of the plasma described above was combined with 100 μl of rabbit brain-derived tissue thromboplastin solution and the time for the clotting was measured. The test substance was used after dissolving in dimethyl sulfoxide (DMSO). A concentration required for 2-fold prolongation of the clotting time was calculated based on the clotting time observed when DMSO was added instead of the test substance.

A word on the IC50: it is the concentration that inhibits the measured activity by half. A lower IC50 goes with greater potency. The compound `CCOC(=O)NC1(CN2CCN(S(=O)(=O)c3ccc4cc(Cl)ccc4c3)CC2=O)CCN(c2ccncc2)CC1` [Example 1, 4-(6-Chloronaphthalene-2-sulfonyl)-1-[4-ethoxycarbonylamino-1-(4-pyridyl)-4-piperidylmethyl]-2-piperazinone] gave a 50% inhibitory concentration (IC50) on human FXa of 4.6 nM. For the same compound, in the assay with Human normal plasma, the “PT CT2” value came out at 0.27 µM.
